The values that follow are results of earlier work, collected in patent US11576379B2, “Antimicrobial composition comprising alkylated polyvinylpyrrolidone polymer” (The Procter & Gamble Company, priority 2019, dated 2023).

Consider `CC(=O)O.CC(=O)O.NC(=N\CCCCCC/N=C(N)/N=C(\N)Nc1ccc(Cl)cc1)/N=C(\N)Nc1ccc(Cl)cc1` [Chlorhexidine diaceate, Chlorhexidine diacetate], for which the Solubility in water is on record as roughly 1%.
